Test results: ChEMBL document CHEMBL1141403, “New adamantane-based spiro 1,2,4-trioxanes orally effective against rodent and simian malaria” (J Med Chem, 2007)
Active and inactive are the calls of the source. No cut-off for these calls is given here.

Tests used:
[1] = tested on: Plasmodium yoelii nigeriensis; test: Antimalarial activity against Plasmodium yoelii nigeriensis infected Swiss mice (Mus musculus) at 24 mg/kg peroral dose over 4 days; format: functional; details: route oral
[2] = tested on: Plasmodium yoelii nigeriensis; test: Antimalarial activity against Plasmodium yoelii nigeriensis infected Swiss mice (Mus musculus) at 48 mg/kg peroral dose over 4 days; format: functional; details: route oral
[3] = tested on: Mus musculus; test: Survival of Swiss mice (Mus musculus) infected with Plasmodium yoelii nigeriensis at 48 mg/kg, peroral after 28 days; format: functional, organism-based; parameters: dose 48 mg/kg
[4] = tested on: Plasmodium cynomolgi; test: Antimalarial activity against Plasmodium cynomolgi infected Rhesus monkey at 20 mg/kg peroral dose after 5 days; format: functional; details: route oral
[5] = tested on: Plasmodium cynomolgi; test: Antimalarial activity against Plasmodium cynomolgi infected Rhesus monkey at 10 mg/kg intramuscular dose over 4 days; format: functional, organism-based; parameters: dose 10 mg/kg
[6] = tested on: Plasmodium yoelii nigeriensis; test: Antimalarial activity at day 4 against Plasmodium yoelii nigeriensis infected in Swiss mice (Mus musculus) at 96 mg/kg peroral dose; format: functional; details: route oral
[7] = tested on: Plasmodium cynomolgi; test: Antimalarial activity against Plasmodium cynomolgi infected Rhesus monkey at 10 mg/kg peroral dose over 4 days; format: functional; details: route oral
[8] = tested on: Mus musculus; test: Survival of Swiss mice (Mus musculus) infected with Plasmodium yoelii nigeriensis at 96 mg/kg, peroral after 28 days; format: functional, organism-based; parameters: dose 96 mg/kg
[9] = tested on: Plasmodium yoelii nigeriensis; test: Antimalarial activity against Plasmodium yoelii nigeriensis infected Swiss mice (Mus musculus) at 96 mg/kg intramuscular dose over 4 days; format: functional
[10] = Partition coefficient, log P of the compound; format: physicochemical; details: octanol/water
[11] = tested on: Mus musculus; test: Survival of Swiss mice (Mus musculus) infected with Plasmodium yoelii nigeriensis at 96 mg/kg, intramuscular after 28 days; format: functional, organism-based; parameters: dose 96 mg/kg
[12] = tested on: Mus musculus; test: Survival of Swiss mice (Mus musculus) infected with Plasmodium yoelii nigeriensis at 24 mg/kg, peroral after 28 days; format: functional, organism-based; parameters: dose 24 mg/kg

Row | SMILES | Activity [1] | Activity [2] | Activity [3] | Activity [4] | Activity [5] | Activity [6] | Activity [7] | Activity [8] | Activity [9] | logP [10] | Activity [11] | Activity [12]
1 | C=C(c1ccc2c(c1)Cc1ccccc1-2)C1COC2(OO1)C1CC3CC(C1)CC2C3 (stereo not drawn) | 100% | 100% | Active | 100% | inactive | 100% | 100% | Active | 100% | 6.39 |  | 
2 | CCO[C@H]1O[C@@H]2O[C@@]3(C)CC[C@H]4[C@H](C)CC[C@@H]([C@H]1C)[C@@]24OO3 [ARTEMOTIL] | 100% | 100% | Active |  |  |  |  |  |  |  |  | 
3 | C=C(c1ccc2c(ccc3ccccc32)c1)C1COC2(OO1)C1CC3CC(C1)CC2C3 (stereo not drawn) |  | 100% |  |  |  | 100% |  |  | 100% | 6.65 |  | 
4 | C=C(c1cccc2ccccc12)C1COC2(OO1)C1CC3CC(C1)CC2C3 (stereo not drawn) |  | 100% |  |  |  | 100% |  | Active | 87% | 5.65 | inactive | 
5 | C=C(C1COC2(CCCCC2)OO1)C12CC3CC(CC(C3)C1)C2 (stereo not drawn) |  |  |  |  |  | 52% |  | inactive |  | 4.79 | inactive | 
6 | C=C(c1ccccc1)C1COC2(OO1)C1CC3CC(C1)CC2C3 (stereo not drawn) |  |  |  |  |  | 99% |  | inactive | 97% | 4.65 | inactive | 
7 | C=C(C1COC2(CCCC2)OO1)C12CC3CC(CC(C3)C1)C2 (stereo not drawn) |  |  |  |  |  | 57% |  | inactive | 38% | 4.38 | inactive | 
8 | C[C@H]1[C@H](OC(=O)CCC(=O)O)O[C@@H]2O[C@@]3(C)CC[C@H]4[C@H](C)CC[C@@H]1[C@@]24OO3 [ARTESUNATE] | 100% | 100% | Active |  |  |  |  |  |  | 3.04 |  | inactive
9 | C=C(c1ccc2ccc3ccccc3c2c1)C1COC2(OO1)C1CC3CC(C1)CC2C3 (stereo not drawn) |  | 100% |  |  |  | 100% |  | Active | 69% | 6.65 | inactive | 
10 | C=C(c1ccc2ccccc2c1)C1COC2(OO1)C1CC3CC(C1)CC2C3 (stereo not drawn) |  | 100% |  |  |  | 100% |  |  | 71% | 5.65 | inactive | 
11 | C=C(C1COC2(OO1)C1CC3CC(C1)CC2C3)C12CC3CC(CC(C3)C1)C2 (stereo not drawn) |  |  |  |  |  | 70% |  | inactive | 14% | 5.43 | inactive | 
12 | C=C(c1ccc2c(c1)CCCC2)C1COC2(OO1)C1CC3CC(C1)CC2C3 (stereo not drawn) |  | 100% |  |  |  | 100% |  | Active | 100% | 5.96 |  | 
